Data as given in patent US20220273678A1 (priority 2020, published 2022).
“Also recorded” adds a separate entry of the source. Counter-ions that a name gives are not always drawn. Like-named read-outs stand apart in the source and are kept apart here.

Columns and labels:
[1] = tested on: IL-6, IL-10; type: cell-based, human
[2] = tested on: SARS-CoV-2; test: microbe, parasite or virus in culture; type: cell-based
[3] = tested on: Calu3 cells; test: XTT cell cytotoxicity assay in uninfected Calu3 cells; type: cell-based, human
Description: (§1) To measure cell viability to determine if there was any treatment-induced cytotoxicity, cells were plated and treated with drugs as described above. Cells were exposed to the same dilution series created for the in vitro efficacy studies. As above, vehicle-treated cells served as the 0% cytotoxicity control. After 24 h, cell viability was measured on a Synergy 2 Biotek microplate reader (Biotek Inc) via the XTT Cell Proliferation Assay Kit (ATCC® 30-1011K™) according to the manufacturer's protocol. Similar data were obtained in three independent experiments.

[4] = tested on: hACE2 HEK293T cells and ALI HAE cultures; conditions: 1000 nM
[5] = tested on: Nrf2, Keap1, HO-1; test: Nrf2, Keap1 and HO-1 protein levels in Calu3 cells, flow cytometry; type: cell-based, human; conditions: for HO-1 protein levels: Calu3, 10 μM DMF, 100-1000 nM Mito-MES, Mito-MES with DMF, 0.25 μM Brusatol, 10 μM 4F; for protein levels of Keap (Keap1) / protein levels of Nrf2: infected and uninfected Calu3
[6] = tested on: IL-6, IL-1β, IL-8, IL-10, TNF-α; type: cell-based, human; conditions: 0.25 μM brusatol; for release of IL-6 from infected cells: 10 μM DMF, 10-100 μM DMF+100-1000 nM Mito-MES
[7] = tested on: uninfected cells; test: XTT cell cytotoxicity assay in similarly treated uninfected cultures (Mito-TEMPO, 4F); type: cell-based; conditions: Mito-TEMPO 10-1000 nM
Description: as §1

[8] = tested on: icSARS-CoV-2-mNG; type: cell-based, SARS-CoV-2
[9] = tested on: icSARS-CoV-2-mNG; type: cell-based, SARS-CoV-2; remark: listed apart in the source

COC1=C(OC)C(=O)C(C/C=C(\C)CC/C=C(\C)CC/C=C(\C)CC/C=C(\C)CC/C=C(\C)CC/C=C(\C)CC/C=C(\C)CC/C=C(\C)CC/C=C(\C)CCC=C(C)C)=C(C)C1=O [CoQ10, Coenzyme Q10]
secretion / release of IL-6 [1]: reduced subsequent release of IL-6

CCCCCCCCCC[P+](c1ccccc1)(c1ccccc1)c1ccccc1.[Br-] [dTPP]
antiviral activity, viral replication by TCID50-assay ([2]; Calu3, dTPP 1000 nM): Antiviral activity was observed
cytotoxicity, XTT assay ([3]; uninfected Calu3, dTPP 1000 nM): not cytotoxic
secretion / release of IL-6 [1]: reduced subsequent release of IL-6
cytotoxicity [4]: not cytotoxic

COC(=O)/C=C/C(=O)OC [DMF, dimethyl fumarate]
release of progeny SARS-CoV-2 virus particles, TCID50 assay ([2]; Calu3, 10 μM DMF pretreatment 24 h, alone or with 10-1000 nM Mito-MES): had anti-SARS-CoV-2 activity; also recorded: reduction in subsequent release of progeny SARS-CoV-2 virus particles
Viral replication by flow cytometry at 48 hpi in Calu3 cells ([2]; DMF 10 μM, Mito-MES 100 nM, Mito-MES 100 nM+DMF 10 μM, […]): 5.4%
Viral replication by flow cytometry at 48 hpi in Calu3 cells ([2]; DMF 100 μM, Mito-MES 100 nM+DMF 100 μM, control 9.3%): 2.1%
cytotoxicity, XTT cell cytotoxicity assay ([3]; 100 μM DMF, 24 h): cytotoxic
HO-1 protein levels [5]: increased protein levels of heme oxygenase-1 (HO-1)
protein levels of Keap (Keap1) [5]: reduced protein levels of the endogenous Nrf2 inhibitor, Keap1; also recorded: reduced protein levels of Keap
protein levels of Nrf2 [5]: did not impact protein levels of Nrf2
release of IL-6 from infected cells [6]: reduction in subsequent release of IL-6

CC1(C)CC(NC(=O)C[P+](c2ccccc2)(c2ccccc2)c2ccccc2)CC(C)(C)N1[O] [Mito-TEMPO]
cytotoxicity, XTT cell cytotoxicity assay [7]: no observed cytotoxicity
antiviral activity against fluorescent SARS-CoV-2 [8]: potent and similar antiviral activity
antiviral activity against fluorescent SARS-CoV-2 [9]: potent and similar antiviral activity

brusatol
percent of infected Calu3 cells positive for the N protein, flow cytometry (data not shown) ([2]; 10 nM Mito-MES+10 μM DMF, 0.25 μM brusatol): directly enhanced SARS-CoV-2 infection
effect of brusatol on the antiviral effect of DMF and Mito-MES ([2]; Calu3, 0.25 μM brusatol 24 h): inhibited the antiviral effect of both DMF alone and Mito-MES
release of progeny virus / SARS-CoV-2 replication, TCID50 ([2]; Calu3, 0.25 μM brusatol pretreatment): significantly increased SARS-CoV2 replication; also recorded: significantly increased subsequent release of progeny SARS-CoV-2 virus particles
Viral replication by flow cytometry at 48 hpi in Calu3 cells ([2]; Mito-MES 1000 nM, Brusatol 250 nM, Mito-MES 1000 nM+Brusatol 250 nM): 39.9%
HO-1 protein levels [5]: increased the HO-1 protein levels
protein levels of Keap (Keap1) [5]: increased protein levels of Keap
protein levels of Nrf2 [5]: reduced protein levels of Nrf2
effect of brusatol on the anti-inflammatory effect of Mito-MES (IL-6) ([6]; Calu3): inhibited the anti-inflammatory effect of Mito-MES
release of IL-6 from infected cells [6]: significantly increased subsequent release of IL-6
